Test results as given in ChEMBL document CHEMBL1641409, “Synthesis and SAR study of new phenylimidazole-pyrazolo[1,5-c]quinazolines as potent phosphodiesterase 10A inhibitors” (Bioorg Med Chem, 2011).
pIC50: −log10 of the molar value.

Assays:
Plasma [1] = test: Drug level in mouse plasma at 2 mg/kg, po; assay type: ADME, organism-based; parameters: dose 2 mg/kg, route oral; settings: in vivo
Brain [2] = test: Drug level in mouse brain measured per gram of tissue at 2 mg/kg, po; assay type: ADME, organism-based; parameters: dose 2 mg/kg, route oral; settings: in vivo
[3] = target: cGMP-inhibited 3',5'-cyclic phosphodiesterase 3A (Homo sapiens, UniProt Q14432); test: Inhibition of PDE3A
[4] = target: 3',5'-cyclic-AMP phosphodiesterase 4D (Homo sapiens, UniProt Q08499); test: Inhibition of PDE4D6
[5] = target: Dual specificity calcium/calmodulin-dependent 3',5'-cyclic nucleotide phosphodiesterase 1B (Homo sapiens, UniProt Q01064); test: Inhibition of PDE1B
[6] = target: 3',5'-cyclic-AMP phosphodiesterase 7B (Homo sapiens, UniProt Q9NP56); test: Inhibition of PDE7B
[7] = target: cGMP-specific 3',5'-cyclic phosphodiesterase (Homo sapiens, UniProt O76074); test: Inhibition of PDE5A
[8] = Ratio of drug level in brain to plasma in mouse at 2 mg/kg, po; assay type: ADME, organism-based; parameters: dose 2 mg/kg, route oral; settings: read-out: BPR
[9] = target: cAMP and cAMP-inhibited cGMP 3',5'-cyclic phosphodiesterase 10A (Homo sapiens, UniProt Q9Y233); test: Inhibition of human PDE10A expressed in Sf9 cells using [3H]cAMP by scintillation proximity assay
[10] = Ratio of drug level in brain to plasma in mouse at 5 mg/kg, sc; assay type: ADME, organism-based; parameters: dose 5 mg/kg, route subcutaneous; settings: read-out: BPR
Brain [11] = test: Drug level in mouse brain measured per gram of tissue at 5 mg/kg, sc; assay type: ADME, organism-based; parameters: dose 5 mg/kg, route subcutaneous; settings: in vivo
Plasma [12] = test: Drug level in mouse plasma at 5 mg/kg, sc; assay type: ADME, organism-based; parameters: dose 5 mg/kg, route subcutaneous; settings: in vivo

Sequence of cAMP and cAMP-inhibited cGMP 3',5'-cyclic phosphodiesterase 10A (Q9Y233 whole entry): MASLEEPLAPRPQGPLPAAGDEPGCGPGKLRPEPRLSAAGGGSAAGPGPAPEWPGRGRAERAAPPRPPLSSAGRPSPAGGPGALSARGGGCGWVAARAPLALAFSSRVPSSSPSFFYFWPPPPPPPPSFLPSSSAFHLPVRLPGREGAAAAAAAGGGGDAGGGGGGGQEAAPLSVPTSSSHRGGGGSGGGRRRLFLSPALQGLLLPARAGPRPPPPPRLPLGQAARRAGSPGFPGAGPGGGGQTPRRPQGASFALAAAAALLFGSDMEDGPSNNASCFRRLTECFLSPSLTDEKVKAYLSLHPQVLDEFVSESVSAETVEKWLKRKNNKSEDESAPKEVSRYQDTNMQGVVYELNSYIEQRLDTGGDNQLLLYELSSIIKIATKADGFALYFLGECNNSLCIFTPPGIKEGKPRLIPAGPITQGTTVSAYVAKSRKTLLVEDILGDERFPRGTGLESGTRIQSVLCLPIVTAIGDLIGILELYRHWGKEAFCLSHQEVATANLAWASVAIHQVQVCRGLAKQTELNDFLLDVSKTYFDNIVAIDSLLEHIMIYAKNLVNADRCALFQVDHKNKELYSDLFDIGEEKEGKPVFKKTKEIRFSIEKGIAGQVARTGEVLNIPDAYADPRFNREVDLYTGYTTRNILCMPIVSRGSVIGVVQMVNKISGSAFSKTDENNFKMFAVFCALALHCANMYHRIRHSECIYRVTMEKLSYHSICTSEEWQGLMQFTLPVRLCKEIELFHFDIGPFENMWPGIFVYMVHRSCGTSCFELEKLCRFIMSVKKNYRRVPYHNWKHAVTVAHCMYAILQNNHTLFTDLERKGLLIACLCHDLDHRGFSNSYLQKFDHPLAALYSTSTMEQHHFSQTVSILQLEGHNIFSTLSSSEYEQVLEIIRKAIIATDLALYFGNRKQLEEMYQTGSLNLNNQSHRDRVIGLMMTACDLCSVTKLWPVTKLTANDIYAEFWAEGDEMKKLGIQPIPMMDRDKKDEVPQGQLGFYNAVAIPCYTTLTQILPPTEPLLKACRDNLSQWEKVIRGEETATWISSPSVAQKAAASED
Sequence of cGMP-inhibited 3',5'-cyclic phosphodiesterase 3A (Q14432 whole entry): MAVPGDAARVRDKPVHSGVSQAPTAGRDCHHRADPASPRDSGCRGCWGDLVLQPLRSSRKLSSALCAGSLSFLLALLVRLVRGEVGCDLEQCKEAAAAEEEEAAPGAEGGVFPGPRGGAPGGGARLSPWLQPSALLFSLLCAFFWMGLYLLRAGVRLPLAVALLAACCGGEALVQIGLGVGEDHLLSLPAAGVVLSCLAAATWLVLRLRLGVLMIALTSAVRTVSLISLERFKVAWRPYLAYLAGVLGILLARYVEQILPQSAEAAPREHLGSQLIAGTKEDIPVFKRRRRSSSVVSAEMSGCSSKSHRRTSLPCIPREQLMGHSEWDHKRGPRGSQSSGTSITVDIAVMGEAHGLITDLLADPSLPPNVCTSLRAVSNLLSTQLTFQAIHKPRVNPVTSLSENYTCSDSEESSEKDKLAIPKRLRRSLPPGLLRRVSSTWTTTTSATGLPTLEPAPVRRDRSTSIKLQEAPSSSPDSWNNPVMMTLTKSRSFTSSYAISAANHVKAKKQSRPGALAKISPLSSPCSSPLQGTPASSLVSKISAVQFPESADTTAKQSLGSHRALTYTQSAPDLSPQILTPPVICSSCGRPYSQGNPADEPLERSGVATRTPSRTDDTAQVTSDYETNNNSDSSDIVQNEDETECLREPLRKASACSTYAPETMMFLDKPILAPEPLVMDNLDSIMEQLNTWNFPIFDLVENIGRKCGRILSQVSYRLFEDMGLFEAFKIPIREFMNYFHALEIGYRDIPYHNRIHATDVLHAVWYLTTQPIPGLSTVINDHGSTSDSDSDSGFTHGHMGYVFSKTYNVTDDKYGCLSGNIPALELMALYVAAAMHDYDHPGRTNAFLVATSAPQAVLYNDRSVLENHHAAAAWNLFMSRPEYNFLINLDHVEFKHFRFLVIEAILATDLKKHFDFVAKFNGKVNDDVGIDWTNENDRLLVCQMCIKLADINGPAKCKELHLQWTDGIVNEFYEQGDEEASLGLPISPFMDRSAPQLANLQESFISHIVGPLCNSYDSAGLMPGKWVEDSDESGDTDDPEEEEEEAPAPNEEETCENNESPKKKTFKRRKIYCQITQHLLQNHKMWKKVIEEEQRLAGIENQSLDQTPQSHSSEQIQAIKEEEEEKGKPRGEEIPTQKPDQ
Sequence of 3',5'-cyclic-AMP phosphodiesterase 4D (Q08499 whole entry): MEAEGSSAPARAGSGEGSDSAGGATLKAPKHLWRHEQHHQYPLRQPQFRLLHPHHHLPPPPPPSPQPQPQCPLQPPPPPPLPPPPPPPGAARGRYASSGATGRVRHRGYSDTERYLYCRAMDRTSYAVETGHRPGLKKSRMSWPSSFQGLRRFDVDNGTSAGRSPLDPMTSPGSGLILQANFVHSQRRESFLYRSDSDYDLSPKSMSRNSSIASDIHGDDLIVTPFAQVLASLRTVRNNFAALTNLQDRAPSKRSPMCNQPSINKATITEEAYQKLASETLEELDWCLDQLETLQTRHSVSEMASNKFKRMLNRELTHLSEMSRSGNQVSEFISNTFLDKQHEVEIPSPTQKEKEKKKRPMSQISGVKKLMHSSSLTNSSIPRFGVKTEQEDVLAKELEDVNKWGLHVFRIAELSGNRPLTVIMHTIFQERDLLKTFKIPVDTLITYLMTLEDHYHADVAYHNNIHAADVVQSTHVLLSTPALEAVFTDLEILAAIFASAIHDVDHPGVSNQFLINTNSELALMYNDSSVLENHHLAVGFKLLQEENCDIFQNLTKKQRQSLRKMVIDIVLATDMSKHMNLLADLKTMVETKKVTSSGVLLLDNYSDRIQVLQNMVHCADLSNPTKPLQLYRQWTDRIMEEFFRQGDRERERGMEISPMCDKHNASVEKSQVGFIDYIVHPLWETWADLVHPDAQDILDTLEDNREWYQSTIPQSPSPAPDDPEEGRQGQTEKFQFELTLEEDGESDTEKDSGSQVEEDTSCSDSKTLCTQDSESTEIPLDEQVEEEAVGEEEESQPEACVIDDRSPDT
Sequence of Dual specificity calcium/calmodulin-dependent 3',5'-cyclic nucleotide phosphodiesterase 1B (Q01064 whole entry): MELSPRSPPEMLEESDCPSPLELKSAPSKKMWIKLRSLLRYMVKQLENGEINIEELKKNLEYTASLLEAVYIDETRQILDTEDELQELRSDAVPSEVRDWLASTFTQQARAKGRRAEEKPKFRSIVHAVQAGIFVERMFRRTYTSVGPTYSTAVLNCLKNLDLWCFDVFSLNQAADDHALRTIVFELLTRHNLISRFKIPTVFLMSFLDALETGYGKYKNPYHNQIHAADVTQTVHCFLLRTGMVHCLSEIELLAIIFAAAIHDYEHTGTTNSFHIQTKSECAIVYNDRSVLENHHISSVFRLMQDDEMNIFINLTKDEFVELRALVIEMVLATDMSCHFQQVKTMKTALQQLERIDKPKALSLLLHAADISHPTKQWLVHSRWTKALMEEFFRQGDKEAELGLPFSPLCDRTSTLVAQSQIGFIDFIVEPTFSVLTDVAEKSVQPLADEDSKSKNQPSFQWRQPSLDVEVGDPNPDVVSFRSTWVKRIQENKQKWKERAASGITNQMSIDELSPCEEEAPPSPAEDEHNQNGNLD
Sequence of 3',5'-cyclic-AMP phosphodiesterase 7B (Q9NP56 whole entry): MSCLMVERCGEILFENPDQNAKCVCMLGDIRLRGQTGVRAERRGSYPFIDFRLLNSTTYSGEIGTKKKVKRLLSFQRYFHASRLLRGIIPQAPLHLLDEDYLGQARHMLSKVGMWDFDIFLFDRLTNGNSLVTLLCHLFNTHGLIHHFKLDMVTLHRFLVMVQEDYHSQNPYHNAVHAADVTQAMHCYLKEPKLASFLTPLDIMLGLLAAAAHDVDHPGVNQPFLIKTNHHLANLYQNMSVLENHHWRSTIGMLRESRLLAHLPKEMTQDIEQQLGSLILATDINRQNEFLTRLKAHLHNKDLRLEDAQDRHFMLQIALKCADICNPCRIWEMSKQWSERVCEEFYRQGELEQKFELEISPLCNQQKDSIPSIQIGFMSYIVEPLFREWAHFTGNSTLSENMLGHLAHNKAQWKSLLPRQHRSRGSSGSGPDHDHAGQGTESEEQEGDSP

| Structure (SMILES) | pIC50 [9] | other results |
| --- | --- | --- |
| Cc1nc2c3ccccc3nc(SCc3nc4ccccc4[nH]3)n2n1 |  | Drug uptake (Plasma [1]): 629 ng/mL; Drug uptake (Brain [2]): < 25 ng/mL; pIC50 [3]: 5.00; pIC50 [4]: 5.00; pIC50 [5]: 5.00; pIC50 [6]: 5.00; pIC50 [7]: 5.00; Kp [8]: < 0.04 |
| Cc1ccc2nc(CCc3nc(-c4ccccc4)cn3C)n3nc(C)cc3c2c1 | 7.80 | pIC50 [3]: 5.00; pIC50 [4]: 5.00; pIC50 [5]: 5.00; pIC50 [6]: 5.00; pIC50 [7]: 5.00 |
| Cc1cc2c3ccccc3nc(CSc3nc(-c4ccccc4)cn3C)n2n1 | 7.32 |  |
| Cc1cc2c3cccc(Cl)c3nc(CSc3nc(-c4ccccc4)cn3C)n2n1 | 7.14 |  |
| Cc1cc2c3ccc(Cl)cc3nc(CSc3nc(-c4ccccc4)cn3C)n2n1 | 6.89 |  |
| Cc1cc2c3cc(Cl)ccc3nc(CSc3nc(-c4ccccc4)cn3C)n2n1 | 6.96 |  |
| COc1cccc2c1nc(CSc1nc(-c3ccccc3)cn1C)n1nc(C)cc21 | 7.08 |  |
| COc1ccc2c(c1)nc(CSc1nc(-c3ccccc3)cn1C)n1nc(C)cc21 | 7.00 |  |
| Cc1cc2c3cccc(C)c3nc(CSc3nc(-c4ccccc4)cn3C)n2n1 | 6.80 |  |
| Cc1ccc2nc(CSc3nc(-c4ccccc4)cn3C)n3nc(C)cc3c2c1 | 7.12 |  |
| Cc1cc2c3ccccc3nc(CCc3nc(-c4ccccc4)cn3C)n2n1 | 7.30 | Kp [10]: 0.65; Drug uptake (Brain [11]): 98 ng/mL; Drug uptake (Plasma [12]): 150 ng/mL |
| Cc1cc2c3cccc(Cl)c3nc(CCc3nc(-c4ccccc4)cn3C)n2n1 | 7.28 |  |
| Cc1cc2c3ccc(Cl)cc3nc(CCc3nc(-c4ccccc4)cn3C)n2n1 | 7.30 |  |
| Cc1cc2c3cc(Cl)ccc3nc(CCc3nc(-c4ccccc4)cn3C)n2n1 | 7.80 |  |
| COc1cccc2c1nc(CCc1nc(-c3ccccc3)cn1C)n1nc(C)cc21 | 7.43 |  |
| COc1ccc2c(c1)nc(CCc1nc(-c3ccccc3)cn1C)n1nc(C)cc21 | 7.51 |  |
| COc1ccc2nc(CCc3nc(-c4ccccc4)cn3C)n3nc(C)cc3c2c1 | 6.37 |  |
| Cc1cc2c3cccc(C)c3nc(CCc3nc(-c4ccccc4)cn3C)n2n1 | 7.11 |  |
